The target in one assay is T1, cloned human dopamine D3 receptors (Homo sapiens, UniProt P35462).
T1 construct: expressed in transfected cells
T1 sequence (P35462 whole entry): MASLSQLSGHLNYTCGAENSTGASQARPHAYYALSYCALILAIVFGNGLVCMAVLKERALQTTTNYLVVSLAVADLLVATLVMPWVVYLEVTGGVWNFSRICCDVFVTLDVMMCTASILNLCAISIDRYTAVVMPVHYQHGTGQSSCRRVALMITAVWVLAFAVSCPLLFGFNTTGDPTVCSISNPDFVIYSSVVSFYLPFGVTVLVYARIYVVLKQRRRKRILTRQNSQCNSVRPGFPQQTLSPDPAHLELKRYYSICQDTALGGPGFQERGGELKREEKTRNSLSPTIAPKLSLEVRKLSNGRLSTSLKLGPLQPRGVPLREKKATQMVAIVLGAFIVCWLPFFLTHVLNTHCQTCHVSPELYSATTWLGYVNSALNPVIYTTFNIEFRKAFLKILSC
The assay can be described thus: [N-Methyl-3H]Spiroperidol binding to cloned human dopamine D3 receptors.
Settings: not given
Summed up: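 Competition binding on homogenized CHO cells stably expressing human D3, with 0.4 nM [3H]NMSP (final), 37 °C for 30 min, filtration and scintillation counting. Nonspecific binding defined with 3 μM S(-)-eticlopride; typically eight test concentrations, 10^−5–10^−8 M final. Ki by Cheng-Prusoff from one-site competition fits, duplicate means.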
`O=C(NCCCCN1CCCN(c2noc3ccsc23)CC1)Nc1cccc(C(F)(F)F)c1` [compound 829432] displayed a Ki of 226 nM. Same read-out and setting: the same measure for `COc1ccc(NC(=O)NCCCCN2CCCN(c3noc4ccsc34)CC2)cc1` [compound 829433]: 216 nM; for `O=C(NCCCCN1CCCN(c2noc3ccsc23)CC1)Nc1ccc(Br)cc1` [compound 829434]: 197 nM; for `CCOc1ccc(NC(=O)NCCCCN2CCC(c3noc4c(C)csc34)CC2)cc1` [compound 829873]: 27.7 nM. Same read-out and setting: under `CCOc1ccc(NC(=O)N(CCCCN2CCC(c3noc4c(C)csc34)CC2)C(=O)Nc2ccc(OCC)cc2)cc1` [compound 829874] stands 360 nM; under `Cc1csc2c(C3CCN(CCCCN(C(=O)Nc4cccc(F)c4)C(=O)Nc4cccc(F)c4)CC3)noc12` [compound 829875], 94.7 nM; under `COc1cccc(NC(=O)N(CCCCN2CCC(c3noc4c(C)csc34)CC2)C(=O)Nc2cccc(OC)c2)c1` [compound 829876], 77.1 nM. Still for that read-out and setting: under `Cc1cccc(NC(=O)NCCCCN2CCC(c3noc4c(C)csc34)CC2)c1` [compound 829878] stands 8.78 nM; under `Cc1csc2c(C3CCN(CCCCNC(=O)Nc4ccccc4F)CC3)noc12` [compound 829879], 354 nM; under `Cc1csc2c(C3CCN(CCCCNC(=O)Nc4cccc(C(F)(F)F)c4Cl)CC3)noc12` [compound 829882], 143 nM. `Cc1ccc(NC(=O)NCCCCN2CCC(c3noc4cc(C)sc34)CC2)cc1` [compound 830517] registered a Ki of 9.04 nM.

`COc1ccc(NC(=O)NCCCCN2CCC(c3noc4cc(C)sc34)CC2)cc1` [compound 830518] had a Ki of 9.16 nM.

Regarding `O=C(NC[C@@H]1C[C@H]1CN1CCN(c2csc3cc(C(F)(F)F)ccc23)CC1)Nc1cccc(F)c1` [compound 832786], the Ki is 61.6 nM.

In the case of `COc1ccc(NC(=O)NC[C@@H]2C[C@H]2CN2CCN(c3csc4cc(C(F)(F)F)ccc34)CC2)cc1` [compound 832810], the Ki was found to be 33.5 nM. On the same count and under the same terms, the same measure for `O=C(NC[C@@H]1C[C@H]1CN1CCN(c2csc3cc(C(F)(F)F)ccc23)CC1)NC1CCCCC1` [compound 832811]: 18.2 nM; for `O=C(NC[C@@H]1C[C@H]1CN1CCN(c2csc3cc(C(F)(F)F)ccc23)CC1)Nc1ccccc1C(F)(F)F` [compound 832812]: 39.5 nM; for `O=C(NC[C@@H]1C[C@H]1CN1CCN(c2csc3cc(C(F)(F)F)ccc23)CC1)Nc1cccc(Cl)c1` [compound 832813]: 50.8 nM. Same read-out and setting: the same measure for `O=C(NC[C@@H]1C[C@H]1CN1CCN(c2csc3cc(C(F)(F)F)ccc23)CC1)Nc1ccc(Oc2ccccc2)cc1` [compound 832820]: 3.9 nM. On the same count and under the same terms, under `CC(C)c1ccc(NC(=O)NC[C@@H]2C[C@H]2CN2CCN(c3csc4cc(C(F)(F)F)ccc34)CC2)cc1` [compound 832919] stands 45.2 nM; under `COc1cccc(NC(=O)NC[C@@H]2C[C@H]2CN2CCN(c3csc4cc(C(F)(F)F)ccc34)CC2)c1` [compound 833203], 18.2 nM; under `O=C(NCCCN1CCCCC1)NC[C@@H]1C[C@H]1CN1CCN(c2csc3cc(C(F)(F)F)ccc23)CC1` [compound 833258], 0.39 nM.

`O=C(NCCCn1ccnc1)NC[C@@H]1C[C@H]1CN1CCN(c2csc3cc(C(F)(F)F)ccc23)CC1` [compound 833306, 1-(3-Imidazol-1-yl-propyl)-3-{(1R, 2R )-2-[4-(6-trifluoromethyl-benzo[b]thiophen-3yl-)-piperazin-1-ylmethyl]-cyclopropylmethyl}-urea] registered a Ki of 0.238 nM. On the same count and under the same terms, under `C[C@H]1CC[C@H](NC(=O)NC[C@@H]2C[C@H]2CN2CCN(c3csc4cc(C(F)(F)F)ccc34)CC2)CC1` [compound 833356] stands 29.1 nM. As to `O=C(NCCCCN1CCN(c2csc3cc(C(F)(F)F)ccc23)CC1)Nc1ccc(C(=O)O)cc1` [compound 833724], the Ki came to 2.1 nM. Turning to `O=C(NCCCCN1CCN(c2csc3cc(C(F)(F)F)ccc23)CC1)Nc1ccc(CO)cc1` [compound 833725], the Ki is 0.602 nM.

The assay is the same for the next values; noted with them: Table III; read-out: d3Ki.
On to `CC(=O)c1ccc(NC(=O)NCCCCN2CCN(c3csc4cc(C(F)(F)F)ccc34)CC2)cc1` [compound 815993], for which the Ki turned out to be 2.26 nM. The same measure, in the same setting: under `COc1ccc(NC(=O)NCCCCN2CCN(c3csc4cc(C(F)(F)F)ccc34)CC2)cc1` [compound 815994] stands 8.87 nM. On the same count and under the same terms, the same measure for `CCCOc1ccc(NC(=O)NCCCCN2CCN(c3csc4cc(C(F)(F)F)ccc34)CC2)cc1` [compound 815995]: 17.5 nM. Turning to `Cc1ccc(NC(=O)NCCCCN2CCN(c3csc4cc(C(F)(F)F)ccc34)CC2)cc1` [compound 815997], the Ki worked out at 4.5 nM. On the same count and under the same terms, the same measure for `O=C(NCCCCN1CCN(c2csc3cc(C(F)(F)F)ccc23)CC1)Nc1ccc(Br)cc1` [compound 816000]: 6.31 nM.

For a further assay, the target named is T2, cloned human alpha-1A adrenergic receptors (α1a) (Homo sapiens, UniProt P35348).
T2 construct: expressed in transfected cells
T2 sequence (P35348 1-466): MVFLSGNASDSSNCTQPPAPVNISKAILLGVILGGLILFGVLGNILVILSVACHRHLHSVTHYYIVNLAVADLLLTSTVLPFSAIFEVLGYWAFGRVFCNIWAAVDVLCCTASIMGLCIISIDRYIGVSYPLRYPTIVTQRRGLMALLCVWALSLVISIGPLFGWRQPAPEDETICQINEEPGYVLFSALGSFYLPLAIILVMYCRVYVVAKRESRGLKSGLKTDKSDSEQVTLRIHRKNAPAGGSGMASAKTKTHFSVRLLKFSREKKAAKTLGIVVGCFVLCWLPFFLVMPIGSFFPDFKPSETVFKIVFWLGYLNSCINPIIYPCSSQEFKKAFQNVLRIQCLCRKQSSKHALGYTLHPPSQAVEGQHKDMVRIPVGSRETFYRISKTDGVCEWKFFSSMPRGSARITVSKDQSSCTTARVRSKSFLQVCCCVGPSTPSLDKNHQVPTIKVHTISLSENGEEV
Nature of the assay: [3H]Prazosin binding to cloned human alpha-1A adrenergic receptors expressed in CHO cells. Conditions: @1 μM. An excerpt:
[^3H]PRAZOSIN BINDING TO CLONED HUMAN ALPHA-1A ADRENERGIC RECEPTORS (α1a) EXPRESSED IN CHINESE HAMSTER OVARY CELLS (CHO)
This in vitro assay is designed as a screen to identify compounds displaying a affinity for the human α1a adrenoceptor subtype expressed in the membrane fragments of CHO cells. The assay-measures the ability of the test compounds to displace [^3H]prazosin from α1a sites.
Therefore, the binding of compounds to α1a adrenergic receptors is believed to be a good measure of a compound's potential to cause orthostatic hypotension and sedation as side effects. Prazosin is a potent antagonist of the human α1a-adrenoceptor subtype, which has been cloned and is expressed in the membrane fragments of CHO cells.
The cloning of the human α1a cDNA was accomplished first by screening a human prostate cDNA library (Clontech), from which a portion of the coding region was obtained. This DNA fragment was then used to screen a human leukocyte genomic library (Clontech), and the rest of the coding sequence was obtained. Later these two fragments were spliced together. The entire coding sequence was then fully sequenced including matching PCR sequence with original genomic coding sequence, thus ensuring splice sites were joined correctly (Schwinn et al., 1995). Once sequenced, the gene was subcloned into the expression vector pcDNA3 (Invitrogen). Plasmid DNA was then used for transfection into CHO cells and G418 resistant clones were isolated. A clone expressing high levels of the hα1a receptor (as determined by mRNA and receptor binding data) was chosen and pharmacologically characterized.
[7-methoxy-^3H]-Prazosin: 1.0 nM (NEN, NET-823) 70-87 Ci/mmol
A: 50 mM Tris HCl; 0.1% ascorbate, pH 7.7 (incubation buffer)
Total Binding=50 μl buffer A+50 μl [^3H]prazosin+100 μl membrane
Nonsp. Bd.=50 μl 10 μM phentolamine+50 μl [^3H]prazosin+100 μl membrane
Test Cpd.=50 μl compound+50 μl [^3H]prazosin+100 μl membrane
Compounds to be evaluated are weighed out to yield a 10 mM stock solution in DMSO in a 24 well polystyrene plate. This is diluted to a 0.5 mM stock in dH2O. Serial dilutions in Buffer A are made from which 50 μl additions to the plate are made in duplicate in order to achieve the final concentrations desired. Typically, one 96 well plate is used to evaluate 11 compounds at 4 concentrations (10^−6-10^−9 M) in duplicate. Total binding and nonspecific binding are determined in quadruplicate. Usually one standard is run with each assay.
[^3H]Prazosin is made up in Buffer A such that when 50 μl are added per well the final concentration is 1.0 nM in a final assay volume of 200 μl. The final concentration should be verified by running a sample in a scintillation counter prior to adding the [^3H]prazosin to the 96 well plate. Note: The radioactivity should be prepared just before the additions are made so that it is not allowed to sit on the bench for very long.
Incubation & Filtration: Once buffer, compounds, [^3H]prazosin and membrane have been added (and mixed), the 96 well plates are incubated for 40 min at 37° C. and spaced 3-5 min apart. At 40 min, the plates are filtered using a Tomtec Automated Cell Harvester. Filtration is immediately followed by washes of ice cold Buffer B (total vol. ˜7 ml).
Analysis of Results: Raw DPM and CPM data are captured on disk and are imported into one of several software packages (Graphpad Prism Ver 2.0, Excel) residing on the LAN. Specific binding is defined as the difference between total binding and the binding in the presence of 10 μM phentolamine. Total binding is less than 10% of the total added ligand. Software using one-site competition curve analysis is employed in the calculation of IC50 and Kj (Cheng-Prusoff equation, 1973). The top and bottom of the non-linear regression are held constant at 0% and 100% inhibition. The percent inhibition at each drug concentration is the mean of duplicate determinations.
As to `COc1ccc(NC(=O)NCCCCN2CCN(c3csc4cc(C(F)(F)F)ccc34)CC2)cc1` [compound 815994], the “halpha1 % I” value is on record as 11.9& Inh @1 μM % Inh.

In the case of `Cc1ccc(NC(=O)NCCCCN2CCN(c3csc4cc(C(F)(F)F)ccc34)CC2)cc1` [compound 815997], the “halpha1 % I” value is 23.5% Inh @1 μM.

The assay is the same for the next values; noted with them: @10 μM.
For `CCCOc1ccc(NC(=O)NCCCCN2CCN(c3csc4cc(C(F)(F)F)ccc34)CC2)cc1` [compound 815995], the “halpha1 % I” value was found to be 42.4% Inh @10 μM.

Staying with this assay, now noted: Table II, pairs of 6-fluoro and 6-trifluoromethyl benzo[b]thiophenes; read-out: halpha1Ki.
For the molecule `O=C(NCCCCN1CCN(c2csc3cc(F)ccc23)CC1)Nc1ccccc1` [compound 813581], the Ki came to 1.5 nM. The same measure, in the same setting: under `CC(=O)c1ccc(NC(=O)NCCCCN2CCN(c3csc4cc(F)ccc34)CC2)cc1` [compound 814932] stands 2.2 nM; under `COc1ccc(NC(=O)NCCCCN2CCN(c3csc4cc(F)ccc34)CC2)cc1` [compound 814933], 1.8 nM. On the same count and under the same terms, under `CCCCc1ccc(NC(=O)NCCCCN2CCN(c3csc4cc(F)ccc34)CC2)cc1` [compound 814937] stands 532 nM; under `Cc1ccc(NC(=O)NCCCCN2CCN(c3csc4cc(F)ccc34)CC2)cc1` [compound 814941], 13.5 nM. As for `O=C(NCCCCN1CCN(c2csc3cc(F)ccc23)CC1)NC1CCCCC1` [compound 814945], the Ki came to 4.5 nM. Still for that read-out and setting: under `O=C(NCCCCN1CCN(c2csc3cc(F)ccc23)CC1)Nc1ccc(Br)cc1` [compound 814949] stands 18.2 nM. Still for that read-out and setting: under `O=C(NCCCCN1CCN(c2csc3cc(F)ccc23)CC1)Nc1ccc(C(F)(F)F)cc1` [compound 814952] stands 44.8 nM; under `O=C(NCCCCN1CCN(c2csc3cc(F)ccc23)CC1)Nc1cccc(F)c1` [compound 814953], 3.5 nM. On the same count and under the same terms, under `CC(=O)c1ccc(NC(=O)NCCCCN2CCN(c3csc4cc(C(F)(F)F)ccc34)CC2)cc1` [compound 815993] stands 74.9 nM. For `COc1ccc(NC(=O)NCCCCN2CCN(c3csc4cc(C(F)(F)F)ccc34)CC2)cc1` [compound 815994], the Ki worked out at 1220 nM. On to `Cc1ccc(NC(=O)NCCCCN2CCN(c3csc4cc(C(F)(F)F)ccc34)CC2)cc1` [compound 815997], for which the Ki came to 936 nM. On the same count and under the same terms, under `O=C(NCCCCN1CCN(c2csc3cc(C(F)(F)F)ccc23)CC1)Nc1ccc(Br)cc1` [compound 816000] stands 234 nM.
